Experimental data taken from patent publication US9187506B2 (Bristol-Meyers Squibb Company, priority 2014, dated 2015).
Read-outs that look alike come from different tables or passages of the source.

Key:
[1] = molecular target: T1, NR2B-subtype NMDA receptors (Rattus norvegicus, UniProt P35439+Q00960); assay: Radioligand binding assay (3H Ro 25-6981 competition, rat forebrain membranes); conditions: 3H Ro 25-6981 4 nM
T1 construct: For membrane preparation, rat forebrains were thawed on ice; from tissue; host or cells: rat forebrain membrane homogenate (Sprague Dawley, Harlan)
Protocol: For membrane preparation, rat forebrains were thawed on ice for 20 minutes in homogenization buffer composed of 50 mM KH2PO4 (pH adjusted to 7.4 with KOH), 1 mM EDTA, 0.005% Triton X 100 and protease inhibitor cocktail (Sigma Aldrich). Thawed brains were homogenized using a Dounce homogenizer and centrifuged at 48000×g for 20 min. The pellet was resuspended in cold buffer and homogenized again using a Dounce homogenizer. Subsequently, the homogenate was aliquoted, snap-frozen and stored at −80° C. for not more than 3-4 months.
To perform the competition binding assay, thawed membrane homogenate was added to each well of a 96-well plate (20 μg/well). The experimental compounds were serially diluted in 100% DMSO and added to each row of the assay plate to achieve desired compound concentrations, keeping the DMSO concentration in the assay plate at 1.33% of the final reaction volume. Next, ^3H Ro 25-6981 (4 nM) was added to the assay plate. After incubation for 1 hr at room temperature, the membrane bound radioligand was harvested on to GF/B filter plates (treated with 0.5% PEI for 1 hr at room temperature). The filter plates were dried at 50° C. for 20 mins, incubated with microscint 20 for 10 minutes and finally, the counts were read on TopCount (Perkin Elmer).

NR2B-subtype receptors = molecular target: T2, NR2B-subtype receptors (Mus musculus, UniProt P35438+Q01097); assay: Ex vivo occupancy assay; format: in vivo; conditions: iv; for receptor occupancy at 3 mg/kg: CD-1 mice, 3 mg/Kg i.v., forebrain harvested 15 minutes post-dosing; for receptor occupancy at 1 mg/kg: mice, 1 mg/Kg i.v., after forced swim test
T2 construct: from tissue; host or cells: forebrain membrane homogenate of dosed CD-1 mice
Protocol: (§1) 7-9 weeks old male CD-1 mice were dosed intravenously in a vehicle consisting of 10% dimethylacetamide, 40% PEG-400, 30% hydroxypropyl betacyclodextrin, and 30% water with experimental compounds and the forebrains were harvested 15 minutes post-dosing by decapitation. The brain samples were immediately snap-frozen and stored at −80° C. On the following day, the dosed brain samples were thawed on ice for 15-20 minutes followed by homogenization using Polytron for 10 seconds in cold homogenization buffer composed of 50 mM KH2PO4 (pH adjusted to 7.4 with KOH), 1 mM EDTA, 0.005% Triton X 100 and protease inhibitor cocktail (Sigma Aldrich). The crude homogenates were further homogenized using a Dounce homogenizer and the homogenized membrane aliquots from all animals were flash-frozen and stored at −80° C. until further use. The whole homogenization process was performed on ice.
For determining occupancy, the membrane homogenates were first thawed on ice and then needle-homogenized using a 25 gauge needle. The homogenized membrane (6.4 mg/ml) was added to a 96-well plate followed by addition of ^3H Ro 25-6981 (6 nM). The reaction mixture was incubated for 5 minutes on a shaker at 4° C. and then harvested onto GF/B filter plates (treated with 0.5% PEI for 1 hr at room temperature). The filter plates were dried at 50° C. for 20 mins, incubated with microscint 20 for 10 minutes and read on TopCount (Perkin Elmer). Each dose or compound group consisted of 4-5 animals. The control group of animals was dosed with vehicle alone. Membrane from each animal was added in triplicates to the assay plate. Non-specific binding was determined using 10 μM Ro 25-6981 added to the wells containing membrane homogenates from vehicle-dosed animals. Specific counts/minute was converted to % occupancy at each dose of a compound for each animal using the following equation:
(§2) [formula] […] Drug levels were determined by mass spectroscopy in the usual manner. Drug levels in the blood plasma were 1106 nM in at this dose, and drug levels in the homogonized brain tissue were 1984 nM. […] Drug levels in the blood plasma were 1800 nM in at this dose, and drug levels in the homogonized brain tissue were 2200 nM. […] Drug levels in the blood plasma were 570 nM at this dose, and drug levels in the homogonized brain tissue were 900 nM.

[2] = Drug levels in blood plasma and brain tissue by mass spectroscopy (ex vivo occupancy study); conditions: male, CD-1, mouse, iv, mice, 3 mg/Kg i.v., 15 minutes post-dosing
Protocol: as §1, §2

hERG channels = molecular target: T3, hERG channels (Homo sapiens, UniProt Q12809); assay: hERG electrophysiology assay (patch clamp, HEK 293 cells); format: cell-based; conditions: HEK 293 cells stably expressing hERG, patch clamp tail current
T3 construct: expressed in transfected cells
Protocol: The experimental compounds were assessed for hERG activity on HEK 293 cells stably expressing hERG channels using patch clamp technique. Coverslips plated with hERG expressing cells were placed in the experimental chamber and were perfused with a solution composed of (in mM): 140 NaCl, 4 KCl, 1.8 CaCl2, 1 MgCl2, 10 Glucose, 10 HEPES (pH 7.4, NaOH) at room temperature. Borosilicate patch pipettes had tip resistances of 2-4 Mohms when filled with an internal solution containing 130 KCl, 1 MgCl2, 1 CaCl2, 10 EGTA, 10 HEPES, 5 ATP-K2 (pH 7.2, KOH). The cells were clamped at −80 mV in whole cell configuration using an Axopatch 200B (Axon instruments, Union City, Calif.) patch clamp amplifier controlled by pClamp (Axon instruments) software. Upon formation of a gigaseal, the following voltage protocol was repeatedly (0.05 Hz) applied to record tail currents: depolarization step from −80 mV to +20 mV for 2 seconds followed by a hyperpolarization step to −65 mV (3 seconds) to elicit tail currents and then, back to the holding potential. […] First, tail currents were recorded in presence of extracellular solution alone (control) and subsequently, in extracellular solution containing increasing compound concentrations. […] The percentage inhibition at each concentration was calculated as reduction in peak tail current with respect to the peak tail current recorded in the presence of control solution. […]

mice = assay: Mouse forced swim test (mFST); format: in vivo; conditions: 1 mg/Kg i.v., 15 min before 6 min swim session
Protocol: Forced Swim Test (FST) is an animal model used to assess antidepressant compounds in preclinical studies. The FST was performed similar to the method of Porsolt et al. with modifications (Porsolt R D, Bertin A, Jalfre M. Behavioral despair in mice: a primary screening test for antidepressants. Arch Int Pharmacodyn Thér 1977; 229:327-36). In this paradigm, mice are forced to swim in an inescapable cylinder filled with water. Under these conditions, mice will initially try to escape and eventually develop immobility behavior; this behavior is interpreted as a passive stress-coping strategy or depression-like behavior. Swim tanks were positioned inside a box made of plastic. Each tank was separated from each other by opaque plastic sheets to the height of cylinders. Three mice were subjected to test at a time. Swim sessions were conducted for 6 min by placing mice in individual glass cylinders (46 cm height×20 cm diameter) containing water (20-cm deep, maintained at 24-25° C.). […] The duration of immobility was evaluated during the total 6 min of the test and expressed as duration (sec) of immobility. […] For NCE testing: Test compound was administered in mice 15 min before swim session by i.v. route and immobility time was recorded for next 6 min. […] The NR2B receptor occupancy was determined as reported above and was determined to be 73%. […] The NR2B receptor occupancy was determined to be 79%.

[3] = Drug levels in plasma and brain after mouse forced swim test; format: in vivo; conditions: iv, mice, 1 mg/Kg i.v., at the end of FST
Protocol: Forced Swim Test (FST) is an animal model used to assess antidepressant compounds in preclinical studies. The FST was performed similar to the method of Porsolt et al. with modifications (Porsolt R D, Bertin A, Jalfre M. Behavioral despair in mice: a primary screening test for antidepressants. Arch Int Pharmacodyn Thér 1977; 229:327-36). In this paradigm, mice are forced to swim in an inescapable cylinder filled with water. Under these conditions, mice will initially try to escape and eventually develop immobility behavior; this behavior is interpreted as a passive stress-coping strategy or depression-like behavior. Swim tanks were positioned inside a box made of plastic. Each tank was separated from each other by opaque plastic sheets to the height of cylinders. Three mice were subjected to test at a time. Swim sessions were conducted for 6 min by placing mice in individual glass cylinders (46 cm height×20 cm diameter) containing water (20-cm deep, maintained at 24-25° C.). […] The duration of immobility was evaluated during the total 6 min of the test and expressed as duration (sec) of immobility. […] All testing sessions were recorded with a video camera (Sony Handicam, Model: DCR-HC38E; PAL) and scoring was done using the Forced Swim Scan, Version 2.0 software (Clever Systems Inc., Reston, Va., USA; see Hayashi E, Shimamura M, Kuratani K, Kinoshita M, Hara H. Automated experimental system capturing three behavioral components during murine forced swim test. Life Sci. 2011 Feb. 28; 88(9-10):411-7 and Yuan P, Tragon T, Xia M, Leclair C A, Skoumbourdis A P, Zheng W, Thomas C J, Huang R, Austin C P, Chen G, Guitart X. Phosphodiesterase 4 inhibitors enhance sexual pleasure-seeking activity in rodents. […] For NCE testing: Test compound was administered in mice 15 min before swim session by i.v. route and immobility time was recorded for next 6 min. […] The NR2B receptor occupancy was determined as reported above and was determined to be 73%. […] The NR2B receptor occupancy was determined to be 79%.

[4] = brain (homogenized forebrain tissue), read-out: drug levels in the homogonized brain tissue
[5] = plasma, read-out: Drug levels in the blood plasma
[6] = plasma, read-out: Drug levels in the plasma

T2 sequence (Q01097 27-1482, other chains not shown): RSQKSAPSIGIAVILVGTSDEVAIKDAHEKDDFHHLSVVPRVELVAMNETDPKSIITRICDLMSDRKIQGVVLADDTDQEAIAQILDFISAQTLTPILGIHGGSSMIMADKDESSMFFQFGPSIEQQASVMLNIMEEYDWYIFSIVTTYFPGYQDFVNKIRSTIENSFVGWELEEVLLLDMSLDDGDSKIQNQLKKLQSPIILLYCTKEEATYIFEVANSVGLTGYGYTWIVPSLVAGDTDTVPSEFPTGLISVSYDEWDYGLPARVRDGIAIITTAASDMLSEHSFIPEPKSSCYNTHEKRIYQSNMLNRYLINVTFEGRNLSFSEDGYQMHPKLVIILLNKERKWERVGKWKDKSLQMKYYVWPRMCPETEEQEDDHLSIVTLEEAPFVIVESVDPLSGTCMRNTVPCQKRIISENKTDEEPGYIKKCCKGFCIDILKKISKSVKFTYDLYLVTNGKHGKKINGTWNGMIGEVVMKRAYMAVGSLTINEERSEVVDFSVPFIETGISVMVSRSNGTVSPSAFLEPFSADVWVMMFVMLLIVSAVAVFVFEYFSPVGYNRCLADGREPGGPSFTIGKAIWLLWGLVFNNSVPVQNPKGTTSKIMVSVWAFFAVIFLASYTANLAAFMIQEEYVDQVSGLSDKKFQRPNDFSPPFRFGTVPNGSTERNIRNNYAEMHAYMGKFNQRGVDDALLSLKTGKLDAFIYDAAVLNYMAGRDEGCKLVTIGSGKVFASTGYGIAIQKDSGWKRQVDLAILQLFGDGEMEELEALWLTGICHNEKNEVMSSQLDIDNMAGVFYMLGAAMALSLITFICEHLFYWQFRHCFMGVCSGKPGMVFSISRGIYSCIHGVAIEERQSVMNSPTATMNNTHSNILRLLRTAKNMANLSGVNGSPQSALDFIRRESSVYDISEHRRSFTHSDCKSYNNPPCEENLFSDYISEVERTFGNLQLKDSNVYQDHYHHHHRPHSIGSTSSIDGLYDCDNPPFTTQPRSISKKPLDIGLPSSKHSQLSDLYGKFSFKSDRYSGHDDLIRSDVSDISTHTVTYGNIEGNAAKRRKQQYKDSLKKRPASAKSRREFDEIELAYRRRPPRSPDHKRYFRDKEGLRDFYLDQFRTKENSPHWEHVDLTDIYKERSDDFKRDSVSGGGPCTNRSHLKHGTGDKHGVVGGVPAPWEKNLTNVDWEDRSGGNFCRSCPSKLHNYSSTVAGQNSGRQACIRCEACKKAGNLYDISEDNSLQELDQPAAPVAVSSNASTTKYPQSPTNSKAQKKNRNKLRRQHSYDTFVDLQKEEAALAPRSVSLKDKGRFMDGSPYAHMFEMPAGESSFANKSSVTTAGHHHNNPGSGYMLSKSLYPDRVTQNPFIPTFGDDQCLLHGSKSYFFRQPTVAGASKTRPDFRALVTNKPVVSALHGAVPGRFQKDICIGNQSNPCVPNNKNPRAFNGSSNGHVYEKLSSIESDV
T1 sequence (Q00960 27-1482, other chains not shown): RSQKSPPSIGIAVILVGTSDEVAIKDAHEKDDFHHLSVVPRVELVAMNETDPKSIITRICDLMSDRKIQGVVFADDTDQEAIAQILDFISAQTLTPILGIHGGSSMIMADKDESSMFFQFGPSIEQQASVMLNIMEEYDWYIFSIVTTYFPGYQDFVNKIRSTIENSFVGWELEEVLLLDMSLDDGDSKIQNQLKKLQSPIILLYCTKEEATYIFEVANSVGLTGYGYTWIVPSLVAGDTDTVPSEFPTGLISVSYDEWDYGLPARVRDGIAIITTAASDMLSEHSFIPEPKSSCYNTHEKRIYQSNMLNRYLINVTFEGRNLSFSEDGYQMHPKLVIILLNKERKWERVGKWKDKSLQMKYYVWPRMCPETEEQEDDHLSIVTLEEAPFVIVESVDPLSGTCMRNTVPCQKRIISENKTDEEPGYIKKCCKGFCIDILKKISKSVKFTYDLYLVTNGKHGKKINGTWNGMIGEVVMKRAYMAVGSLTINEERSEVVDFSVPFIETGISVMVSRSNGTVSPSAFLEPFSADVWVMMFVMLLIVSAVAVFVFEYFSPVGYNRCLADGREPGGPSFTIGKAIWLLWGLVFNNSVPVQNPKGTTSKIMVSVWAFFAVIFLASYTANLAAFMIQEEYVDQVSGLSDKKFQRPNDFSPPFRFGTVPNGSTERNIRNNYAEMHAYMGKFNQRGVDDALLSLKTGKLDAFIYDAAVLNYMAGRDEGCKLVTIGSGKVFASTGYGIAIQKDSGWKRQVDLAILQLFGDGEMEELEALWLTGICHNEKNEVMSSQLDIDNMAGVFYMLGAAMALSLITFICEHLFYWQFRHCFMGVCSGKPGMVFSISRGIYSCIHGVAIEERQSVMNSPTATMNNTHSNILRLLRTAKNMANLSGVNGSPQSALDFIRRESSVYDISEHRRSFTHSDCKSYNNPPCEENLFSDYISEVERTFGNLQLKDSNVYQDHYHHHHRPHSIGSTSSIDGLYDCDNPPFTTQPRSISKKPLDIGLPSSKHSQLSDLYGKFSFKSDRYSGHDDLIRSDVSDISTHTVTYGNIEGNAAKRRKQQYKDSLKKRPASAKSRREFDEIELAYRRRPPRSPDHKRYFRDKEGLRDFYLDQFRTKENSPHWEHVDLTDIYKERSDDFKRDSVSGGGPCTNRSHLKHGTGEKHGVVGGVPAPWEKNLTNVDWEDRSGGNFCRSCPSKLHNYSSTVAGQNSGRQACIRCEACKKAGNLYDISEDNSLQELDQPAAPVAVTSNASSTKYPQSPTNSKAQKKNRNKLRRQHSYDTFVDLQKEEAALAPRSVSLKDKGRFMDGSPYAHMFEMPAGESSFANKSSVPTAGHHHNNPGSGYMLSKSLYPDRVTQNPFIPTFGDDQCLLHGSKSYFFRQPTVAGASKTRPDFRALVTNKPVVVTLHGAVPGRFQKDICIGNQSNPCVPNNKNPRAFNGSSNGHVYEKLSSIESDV
T3 sequence (Q12809 whole entry): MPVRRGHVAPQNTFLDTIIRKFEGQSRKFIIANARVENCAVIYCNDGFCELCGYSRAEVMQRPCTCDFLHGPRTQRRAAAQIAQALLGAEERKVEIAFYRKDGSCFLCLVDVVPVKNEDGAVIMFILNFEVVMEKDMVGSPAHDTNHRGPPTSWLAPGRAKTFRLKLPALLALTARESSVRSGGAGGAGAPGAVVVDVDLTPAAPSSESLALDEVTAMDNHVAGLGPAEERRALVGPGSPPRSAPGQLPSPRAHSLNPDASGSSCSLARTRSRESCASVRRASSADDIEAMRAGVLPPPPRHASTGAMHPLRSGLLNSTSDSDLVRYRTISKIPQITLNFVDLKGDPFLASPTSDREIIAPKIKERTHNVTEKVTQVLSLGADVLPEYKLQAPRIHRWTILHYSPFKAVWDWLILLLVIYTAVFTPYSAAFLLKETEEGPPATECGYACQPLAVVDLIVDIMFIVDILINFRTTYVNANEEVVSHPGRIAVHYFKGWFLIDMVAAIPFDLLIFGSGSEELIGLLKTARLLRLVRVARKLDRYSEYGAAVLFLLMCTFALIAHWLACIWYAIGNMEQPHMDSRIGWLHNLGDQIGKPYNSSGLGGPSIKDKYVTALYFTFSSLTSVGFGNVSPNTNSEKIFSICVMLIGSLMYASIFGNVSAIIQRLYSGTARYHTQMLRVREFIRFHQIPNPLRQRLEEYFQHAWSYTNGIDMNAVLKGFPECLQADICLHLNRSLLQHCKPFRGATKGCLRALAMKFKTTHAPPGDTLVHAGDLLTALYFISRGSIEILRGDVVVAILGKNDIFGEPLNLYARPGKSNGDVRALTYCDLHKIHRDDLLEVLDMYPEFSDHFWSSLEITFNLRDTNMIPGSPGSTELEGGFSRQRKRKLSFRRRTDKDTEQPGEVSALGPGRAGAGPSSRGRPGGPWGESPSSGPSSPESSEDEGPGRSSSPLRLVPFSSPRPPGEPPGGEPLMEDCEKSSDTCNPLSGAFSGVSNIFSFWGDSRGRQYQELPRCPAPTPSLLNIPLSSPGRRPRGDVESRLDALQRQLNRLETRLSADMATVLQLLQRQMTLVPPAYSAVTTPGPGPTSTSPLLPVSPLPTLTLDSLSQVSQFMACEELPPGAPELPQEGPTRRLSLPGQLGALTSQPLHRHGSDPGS

Row | Compound | Ki [1] [µM] | receptor occupancy at 3 mg/kg (NR2B-subtype receptors) [%] | receptor occupancy at 1 mg/kg (NR2B-subtype receptors) [%] | concentration at 15 min [2, 4] [nM] | concentration at 15 min [2, 5] [nM] | IC50 (hERG channels) [µM] | immobility time (mice) | concentration at 21 min [3, 6] [nM] | concentration at 21 min ([3]; brain, read-out: Drug levels in the brain) [nM]
1 | O=C1[C@H](N2CC[C@@H](c3ccc(O)cc3)[C@H](F)C2)CCN1Cc1ccc(C(F)F)cc1 (single isomer, unassigned) [example 6] | 0.004 | 97 | 79 | 2200 | 1800 | 13.5 | statistically significant decrease in immobility time | 360 | –
2 | O=C1[C@H](N2CCC(c3ccc(O)cc3)CC2)CCN1Cc1ccc(F)cc1 (single isomer, unassigned) [example 8] | 0.0014 | 96 | – | 900 | 570 | – | – | – | –
3 | Cc1ccc(CN2CC[C@@H](N3CC[C@@H](c4ccc(O)cc4)[C@H](F)C3)C2=O)cc1 [example 1, (R)-3-((3S,4S)-3-fluoro-4-(4-hydroxyphenyl)piperidin-1-yl)-1-(4-methylbenzyl)pyrrolidin-2-one] | – | 95 | 73 | 1980 | 1110 | 28 | statistically significant decrease in immobility time | 268 | 749
